# Source: patent US20240301409A1, “Chemically Modified Small Activating RNA” (RACTIGEN THERAPEUTICS, priority 2021, published 2024)
# Oligonucleotides are written 5' to 3', each unit as a sugar letter and its base; * is a phosphorothioate linkage, no mark a phosphodiester; rarer units and linkages stand in square brackets, end groups in braces. Plain capitals give the bases only. m = 2'-O-methyl; r = 2'-OH (RNA); f = 2'-fluoro
# Tests used:
# [1] = system: Rag1-40 target sequence in the 3′ UTR of firefly luciferase, COS-1 cells
# RNase A = target: T1, RNase A (Bos taurus, UniProt P61823)
# T1 sequence (P61823 27-150): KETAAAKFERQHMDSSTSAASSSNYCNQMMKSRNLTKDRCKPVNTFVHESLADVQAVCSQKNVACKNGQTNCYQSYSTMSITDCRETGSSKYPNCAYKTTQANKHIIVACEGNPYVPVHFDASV
# J82 cells = test: Cellular proliferation assay (CCK8) in J82 cells, combined with Mitomycin C or valrubicin; type: cell-based, human
# Experimental: J82 cells were transfected with RAG1-40-31 at concentrations of 0.1, 0.5, 1, 5, 10, 25 and 50 nM for 24 hours, and then Mitomycin C at concentrations of 1, 10, 100, 1000 and 10000 nM was added. The combined treatment was carried out with concentrations in pairs. After treatment, the proliferation of cells was detected using CCK8 kit. FIGS. 14A-14B show the relative proliferation proportion of J82 cells after the combined treatment with chemically modified saRNA RAG1-40-31 and valrubicin. […] Control and DMSO are the blank transfection control and the solvent for dilution control, respectively.
# (§1) J82 cells were transfected with RAG1-40-31 at concentrations of 0.1, 0.5, 1, 5, 10, 25 and 50 nM for 24 hours, and then valrubicin at concentrations of 1, 10, 100, 1000 and 10000 nM was added. The combined treatment was carried out with concentrations in pairs. After treatment, the cellular proliferation was detected by CCK8 kit. FIGS. 15A-15B show the relative proliferation proportion of T24 cells after the combined treatment with chemically modified saRNA RAG1-40-31 and Mitomycin C. […] Control and DMSO are the blank transfection control and the solvent for dilution control, respectively.
# (§2) Human bladder cancer cells Ku-7-LG (ATCC), J82 (ATCC) and T24 (ATCC) were cultured in McCoy medium (Gibco) comprising 10% calf serum (Sigma-Aldrich) and 1% penicillin/Streptomycin (Gibco). Cells were cultured at 37° C. under 5% CO2. Ku-7-LG, J82 and T24 cells were plated into 12-well plates at 10×10^4 cells per well, transfected with the small RNA at a concentration of 10 nM (unless otherwise specified) for three days, using RNAiMax (Invitrogen, Carlsbad, CA) according to the manufacturer's instructions. Two replicate wells were set for each treatment.
# (§3) Cells were plated in a 96-well plate at 2˜4×10^3 cells/well, cultured overnight, and transfected with the oligonucleotide duplexes. Three days after transfection, CCK8 (Dojindo) was used to detect cellular proliferation following manufacturer's instructions. The experimental steps are briefly described as follows: 10 μL of CCK8 solution was added to each well, incubated at 37° C. for 1 hour, and then the absorbance at 450 nm was measured using a microplate reader.
# In this example, chemically modified saRNA RAG1-40-31 was used in combination with clinical chemical agents to evaluate the suppressing effect of the combined agents on cancer cells.
# T24 cells = test: Cellular proliferation assay (CCK8) in T24 cells, alone and combined with Mitomycin C or valrubicin; type: cell-based, human
# Excerpt: After the transfection, the number of viable cells was detected with a CCK8 kit, and plotted as the percentage of the blank control treatment group. […] A transfection sample without oligonucleotide served as a blank control. Non-specific duplex (dsCon) transfected sample served as a negative control. Data are presented as mean±SD of at least two independent experiments. The values below the dashed line indicate stronger growth inhibitory activity compared to duplex Rag1-40 without chemical modification.
# as §1, with “T24” for “J82”, “Mitomycin C was added” for “valrubicin”, “nM.” for “nM was added.”, “16A-16B” for “15A-15B”, “valrubicin.” for “Mitomycin C.”
# T24 cells were transfected with RAG1-40-31 at concentrations of 0.1, 0.5, 1, 5, 10, 25 and 50 nM for 24 hours, and then valrubicin at concentrations of 1, 10, 100, 1000 and 10000 nM was added. The combined treatment was carried out with concentrations in pairs. After treatment, the cellular proliferation was detected by CCK8 kit.
# as §2, §3
# It is known that p21 induction by saRNA is that a variety of tumor suppressor factors such as p21 protein suppress the proliferation of cancer cells. To evaluate the effect of chemically modified saRNAs on the function of cancer cells, cells (Ku-7-LG and T24) were transfected with 10 nM unmodified and modified saRNAs for 72 hours, and the cellular proliferation was determined by CCK8. […] Furthermore, there was a correlation between RNA activating activity (FIGS. 7A-7B) and suppression of cellular proliferation activity (FIGS. 8A-8B). Strong p21 activators are usually also strong cytostatics.
compound,measurement,setting,value
Rag1-40-4: saRNA duplex: sense mCmCAACUCAUUCUCCAAGmUmC (SEQ ID NO 5); antisense fUACUfUGGAGAAfUGAGUfUGG*fC*A (SEQ ID NO 9) (sense mCmCrArArCrUrCrArUrUrCrUrCrCrArArGmUmC; antisense fUrArCrUfUrGrGrArGrArAfUrGrArGrUfUrGrG*fC*rA),"off-target effect compared to unmodified Rag1-40, in words",[1],completely inhibited
same,time to complete degradation,RNase A,≤ 24 h
Rag1-40-26: saRNA duplex: sense fCfCAACUCAUUCUCCAAG*U*C (SEQ ID NO 16); antisense fUACUfUGGAGAAfUGAGUfUGGfCA (SEQ ID NO 7) (sense fCfCrArArCrUrCrArUrUrCrUrCrCrArArG*rU*rC; antisense fUrArCrUfUrGrGrArGrArAfUrGrArGrUfUrGrGfCrA),"off-target effect compared to unmodified Rag1-40, in words",[1],increased off-target effects
same,time to complete degradation,RNase A,≤ 24 h
"Rag1-40-20: saRNA duplex: sense mCmCAACUCAUUCUCCAAG*U*C (SEQ ID NO 15); antisense fUACUfUGGAGAAfUGAGUfUGG*fC*A (SEQ ID NO 9) (sense CCAACUCAUUCUCCAAGUC; antisense UACUUGGAGAAUGAGUUGGCA; 2'-OMe, 2'-F, phosphorothioate modifications; modified_base (1)..(2) (1,2)=2′-O-methyl(2′-OMe); modified_base (17)..(19) (17,18,19)=phosphorothioate (PS) backbone modification; modified_base (1)..(20) (1,5,12,17,20)=2′-fluoro; modified_base (19)..(21) (19,20,21)=phosphorothioate (PS) backbone modification)","off-target effect compared to unmodified Rag1-40, in words",[1],mitigated or similar off-target effects
same,time to complete degradation,RNase A,≤ 24 h
"Rag1-40-18: saRNA duplex: sense mCmCAACUCAUUCUCCAAG*U*C (SEQ ID NO 15); antisense fUACUfUGGAGAAfUGAGUfUGGfCA (SEQ ID NO 7) (sense CCAACUCAUUCUCCAAGUC; antisense UACUUGGAGAAUGAGUUGGCA; 2'-OMe, 2'-F, phosphorothioate modifications; modified_base (1)..(2) (1,2)=2′-O-methyl(2′-OMe); modified_base (17)..(19) (17,18,19)=phosphorothioate (PS) backbone modification; modified_base (1)..(20) (1,5,12,17,20)=2′-fluoro)","off-target effect compared to unmodified Rag1-40, in words",[1],mitigated or similar off-target effects
same,time to complete degradation,RNase A,≤ 24 h
"Rag1-40-10: saRNA duplex: sense fCfCAACUCAUUCUCCAAGfUfC (SEQ ID NO 14); antisense fUACUfUGGAGAAfUGAGUfUGGfCA (SEQ ID NO 7) (sense CCAACUCAUUCUCCAAGUC; antisense UACUUGGAGAAUGAGUUGGCA; 2'-F modifications; modified_base (1)..(19) (1,2,18,19)=2′-fluoro; modified_base (1)..(20) (1,5,12,17,20)=2′-fluoro)","off-target effect compared to unmodified Rag1-40, in words",[1],completely inhibited
same,time to complete degradation,RNase A,≤ 24 h
Rag1-40-30: saRNA duplex: sense fCfCAACUCAUUCUCCAAG*U*C (SEQ ID NO 16); antisense fU*A*fCfUfUGGAGAAfUGAGfUfUGG*fC*A (SEQ ID NO 11) (sense fCfCrArArCrUrCrArUrUrCrUrCrCrArArG*rU*rC; antisense fU*rA*fCfUfUrGrGrArGrArAfUrGrArGfUfUrGrG*fC*rA),"off-target effect compared to unmodified Rag1-40, in words",[1],mitigated or similar off-target effects
same,degradation of duplex at 96 hours,RNase A,little or no signs of degradation
"Rag1-40-12: saRNA duplex: sense fCfCAACUCAUUCUCCAAGfUfC (SEQ ID NO 14); antisense fUACUfUGGAGAAfUGAGUfUGG*fC*A (SEQ ID NO 9) (sense CCAACUCAUUCUCCAAGUC; antisense UACUUGGAGAAUGAGUUGGCA; 2'-F and phosphorothioate modifications; modified_base (1)..(19) (1,2,18,19)=2′-fluoro; modified_base (1)..(20) (1,5,12,17,20)=2′-fluoro; modified_base (19)..(21) (19,20,21)=phosphorothioate (PS) backbone modification)","off-target effect compared to unmodified Rag1-40, in words",[1],mitigated or similar off-target effects
same,time to complete degradation,RNase A,≤ 24 h
"CO[C@@]12[C@H](COC(N)=O)C3=C(C(=O)C(C)=C(N)C3=O)N1C[C@@H]1N[C@@H]12 [MMC, Mitomycin C, reference compound]",Relative proliferation proportion of J82 cells,J82 cells; RAG1-40-31 0 nM + MMC 1 nM,99.9%
same,Relative proliferation proportion of J82 cells,J82 cells; RAG1-40-31 0 nM + MMC 10 nM,99.9%
same,Relative proliferation proportion of J82 cells,J82 cells; RAG1-40-31 0 nM + MMC 100 nM,99.9%
same,Relative proliferation proportion of J82 cells,J82 cells; RAG1-40-31 0 nM + MMC 1000 nM,100.0%
same,Relative proliferation proportion of J82 cells,J82 cells; RAG1-40-31 0 nM + MMC 10000 nM,100.0%
same,Relative proliferation proportion of T24 cells,T24 cells; RAG1-40-31 0 nM + MMC 1 nM,100.0%
same,Relative proliferation proportion of T24 cells,T24 cells; RAG1-40-31 0 nM + MMC 10 nM,100.0%
same,Relative proliferation proportion of T24 cells,T24 cells; RAG1-40-31 0 nM + MMC 100 nM,100.0%
same,Relative proliferation proportion of T24 cells,T24 cells; RAG1-40-31 0 nM + MMC 1000 nM,100.0%
same,Relative proliferation proportion of T24 cells,T24 cells; RAG1-40-31 0 nM + MMC 10000 nM,100.0%
"CCCCC(=O)OCC(=O)[C@]1(O)Cc2c(O)c3c(c(O)c2[C@@H](O[C@H]2C[C@H](NC(=O)C(F)(F)F)[C@H](O)[C@H](C)O2)C1)C(=O)c1c(OC)cccc1C3=O [valrubicin, Valrubicin, reference compound]",Relative proliferation proportion of J82 cells,J82 cells; RAG1-40-31 0 nM + valrubicin 1 nM,100.0%
same,Relative proliferation proportion of J82 cells,J82 cells; RAG1-40-31 0 nM + valrubicin 10 nM,100.0%
same,Relative proliferation proportion of J82 cells,J82 cells; RAG1-40-31 0 nM + valrubicin 100 nM,100.0%
same,Relative proliferation proportion of J82 cells,J82 cells; RAG1-40-31 0 nM + valrubicin 1000 nM,100.0%
same,Relative proliferation proportion of J82 cells,J82 cells; RAG1-40-31 0 nM + valrubicin 10000 nM,100.0%
same,Relative proliferation proportion of T24 cells,T24 cells; RAG1-40-31 0 nM + valrubicin 1 nm,100.0%
same,Relative proliferation proportion of T24 cells,T24 cells; RAG1-40-31 0 nM + valrubicin 10 nm,100.0%
same,Relative proliferation proportion of T24 cells,T24 cells; RAG1-40-31 0 nM + valrubicin 100 nm,100.0%
same,Relative proliferation proportion of T24 cells,T24 cells; RAG1-40-31 0 nM + valrubicin 1000 nm,100.0%
same,Relative proliferation proportion of T24 cells,T24 cells; RAG1-40-31 0 nM + valrubicin 10000 nm,100.0%
